Structures can show the parent of a compound that is named as a salt. Where two headings read alike, the source gives them in different places.
Columns and labels:
[1] = test system: rats; test: hypermotility provoked with amphetamine in rats (method of Janssen); type: in vivo, rat
Description: The effect of 8-phenoxycarbonyl-3-hydrazinocarbonyloxy-nortropane exerted on the hypermotility provoked with amphetamine on rats was examined by the method of Janssen (Psychopharmacologia 1, 389- 392/1960/). The stimulation of central nervous system was provoked with subcutaneous dosages of 7.5 mg/kg of amphetamine. The tests were performed on groups each consisting of 10 rats.

[2] = test system: mice; test: hypermotility provoked with amphetamine in mice (light interruption); type: in vivo, mouse
Description: (§1) The effect of 8-phenoxycarbonyl-3-hydrazinocarbonyl-oxy-nortropane exerted on the motilities of mice was tested according to the method of Borsy et al. (Arch. Int. Pharmacodyn. 124, 1- 2/1960/). The compound was administered orally in dosages of 20 to 80 mg/kg.
The above test method was applied also to study how 8-phenoxycarbonyl-3-hydrazinocarbonyloxy-nortropane does influence the hypermotility provoked with amphetamine (2-amino-1-phenyl-propane). Amphetamine was administered subcutaneously to mice in dosages of 7.5 mg/kg.

[3] = toxicity test on rats, observation for 7 days; details: rat, in vivo, po
Description: (§2) The toxicities and narcosis potentiating effects of the novel compounds having the general formula (I) were studied on rats weighing 120 to 150 g. In the toxicity tests the animals were kept under observation for 7 days. The narcosis potentiating effect was studied on animals treated with an intravenous dosage of 50 mg/kg of hexabarbital (5-/1-cyclohexenyl/-1',5-dimethylbarbituric acid), and the prolongation of sleeping period was recorded. A 150% prolongated of sleeping period in relation to the controls was regarded as positive response. The number of animals with positive responses was related to the total number of animals treated.

[4] = test system: rats; test: narcosis potentiating effect (prolongation of hexabarbital sleeping period); type: in vivo; details: Rattus norvegicus, po, read-out: ED50 (narcosis potentiating effect)
Description: as §2

[5] = test system: mice; test: effect on motility of mice (method of Borsy et al.); type: in vivo, mouse; details: oral, 20 to 80 mg/kg
Description: as §1

[6] = 0.9% saline 20 ml/kg p.o. + amphetamine 7.5 mg/kg s.c.
[7] = 0.9% saline 20 ml/kg s.c. + compound 40 mg/kg p.o., no amphetamine
[8] = compound 40 mg/kg p.o. + amphetamine 7.5 mg/kg s.c.

## CC(N)Cc1ccccc1 (stereo not drawn) [Amphetamine, 2-amino-1-phenyl-propane, reference compound]
[1]; [6]
  Rearing (average): 28.6
  Triangle walked in (average): 28.5
  Washing (average): 2.7
[2]; amphetamine 7.5 mg/kg s.c. + 5% carboxymethylcellulose solution
  Light interruption (average): 583

## CN(C)CCCN1c2ccccc2Sc2ccc(Cl)cc21 [Chloropromazine, 2-chloro-10-/3-dimethylaminopropyl/-phenothiazine, reference compound]
[3]
  LD50 at 168 h: 210 mg/kg
[4]; rats, hexabarbital 50 mg/kg i.v., 150% prolongation of sleeping period = positive response
  ED50: 4.7 mg/kg

## CCOC(=O)N1[C@@H]2CC[C@H]1C[C@@H](OC(=O)NN)C2 [Example 1, 8-Ethoxycarbonyl-3α-hydrazinocarbonyloxy-nortropane hydrochloride]
[3]
  LD50 at 168 h: > 2000 mg/kg
[4]
  ED50: 0.54 mg/kg

## NNC(=O)O[C@H]1C[C@H]2CC[C@@H](C1)N2C(=O)Oc1ccccc1 [Example 3, 8-Phenoxycarbonyl-3α-hydrazinocarbonyloxy-nortropane]
[3]
  LD50 at 168 h: 5000 mg/kg
[1]; [7]
  Rearing (average): 11.8
  Triangle walked in (average): 16.1
  Washing (average): 3.3
[1]; [8]
  Rearing (average): 21.5
  Triangle walked in (average): 14.5
  Washing (average): 0.6
[4]
  ED50: 3 mg/kg
[5]
  influence on motility: did not influence the motilities
[2]; amphetamine 7.5 mg/kg s.c. + compound 40 mg/kg p.o.
  Light interruption (average): 270
[2]; amphetamine 7.5 mg/kg s.c. + compound 80 mg/kg p.o.
  Light interruption (average): 175
[2]; mice, both dosages examined (40 and 80 mg/kg p.o.)
  inhibition of locomotor stimulating effect of amphetamine: completely inhibited

## CC(=O)N(NC(=O)OC1CC2CCC(C1)N2C(=O)Oc1ccccc1)C(C)=O (stereo not drawn) [Example 14, 8-Phenoxycarbonyl-3α-(2',2'-diacetyl-hydrazinocarbonyloxy)-nortropane]
[3]
  LD50 at 168 h: > 1200 mg/kg
[4]
  ED50: 1 mg/kg

## O=C(CCCN1CCC(O)(c2ccc(Cl)cc2)CC1)c1ccc(F)cc1 [Haloperidol, 4-(4-chlorophenyl/-4-hydroxy-piperidyl)-4'-fluoro-butyrophenone, reference compound]
[3]
  LD50 at 168 h: 450 mg/kg
[4]
  ED50: 2.8 mg/kg
